Experimental findings from patent US20060063736A1, “Compositions and methods for inhibiting mucin-type O-linked glycosylation” (priority 2004, published 2006) are described below.

For experiment [1], the target named is T1, mppGalNAcT-1 (Mus musculus, UniProt O08912).
T1 construct: plasmids encoding truncated secreted ppGalNAcTs-1 to −5, -7, -10 and -11; made in house; host or cells: COS-7
T1 sequence (O08912 29-559 limits assumed): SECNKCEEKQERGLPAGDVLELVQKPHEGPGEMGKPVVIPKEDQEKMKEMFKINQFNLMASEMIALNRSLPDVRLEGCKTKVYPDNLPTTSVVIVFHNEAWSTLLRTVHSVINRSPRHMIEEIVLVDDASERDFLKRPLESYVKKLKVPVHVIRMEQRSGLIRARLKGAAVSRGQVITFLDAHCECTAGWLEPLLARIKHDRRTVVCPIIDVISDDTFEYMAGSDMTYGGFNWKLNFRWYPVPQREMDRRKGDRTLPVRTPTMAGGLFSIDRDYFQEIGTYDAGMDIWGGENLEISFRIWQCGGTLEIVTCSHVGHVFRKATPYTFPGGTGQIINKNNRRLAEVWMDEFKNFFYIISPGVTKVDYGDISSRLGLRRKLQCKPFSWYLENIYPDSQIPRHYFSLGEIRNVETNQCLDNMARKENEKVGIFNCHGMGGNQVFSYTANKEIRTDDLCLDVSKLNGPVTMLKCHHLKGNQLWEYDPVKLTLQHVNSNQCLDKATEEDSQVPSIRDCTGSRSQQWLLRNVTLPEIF
The experiment is described as follows: ELLA for ppGalNAcTs, mppGalNAcT-1. It counts as biochemical, murine. The conditions noted are these: for IC50: ELLA, 20 μM UDP-GalNAc, 50 μM EA2 peptide 4; for mode of inhibition with respect to UDP-GalNAc: mppGalNAcT-1; for Ki: mppGalNAcT-1, with respect to UDP-GalNAc, read-out: KI versus UDP-GalNAc. On the procedure: COS-7 cells were transiently transfected with plasmids encoding truncated secreted ppGalNAcTs-1 to −5, -7, -10 and -11 as previously described. Hagen et al. (1997) J. Biol. Chem. 272:13843-13848. The crude conditioned medium was used as the enzyme source.
Standard reaction conditions for ppGalNAcT assays were as follows. The reaction mixture contained the following components in a final volume of 25 μL: 10 mM MnCl2, 40 mM sodium cacodylate, 40 mM β-mercaptoethanol, 0.1% Triton X-100, pH 6.5, 5 μL of conditioned media, and various concentrations of EA2 peptide 4, UDP-GalNAc and inhibitor. All uridine-based compounds were dissolved in dimethyl sulfoxide (DMSO). The concentration of DMSO in the reaction mixture was limited to 2% (v/v), as higher concentrations decreased ppGalNAcT activity. For inhibitor assays, reaction mixtures for positive controls also contained 2% DMSO. Unless otherwise stated, inhibitor assays were performed using 20 μM UDP-GalNAc and 50 μM EA2 peptide 4, the KM values for both substrates. Reactions were incubated at 37° C. and were terminated by the addition of 10 μL of 0.1 M EDTA. All experiments were performed in duplicate. Reaction rates were linear over the period monitored (20-30 min).
96-Well NeutrAvidin-coated plates were prewashed 3 times with 200 μL of wash buffer (25 mM Tris, 150 mM NaCl, 0.1% bovine serum albumin (BSA) (w/v), and 0.05% Tween (v/v), pH 7.2). Reactions were then transferred to the 96-well plates, incubated for 1 hour at room temperature (rt) and subsequently washed 3 times with 200 μL of phosphate-buffered saline (PBS) containing 0.5% BSA and 0.05% Tween, pH 7.1. A 100-μL solution of HPA-HRP in standard PBS buffer (1 μg/mL, pH 7.4) was added and the reaction was incubated for 1 h at rt. After 3 washes with 200 μL of PBS, bound HPA-HRP was quantified by the addition of 100 μL of TMB peroxide solution. The solutions were incubated for 5-15 min in the dark at rt. HRP activity was terminated by the addition of 50 μL of 2 N H2SO4 and the resulting solution was analyzed at 450 nm using a UV/Vis microtiter plate reader. The amount of product generated by the ppGalNAcT was extrapolated from absorbance values using an equation fit to the standard curve derived from Origin 6.1 software.
In order to screen the library in high-throughput format, a non-radioactive enzyme linked lectin assay (ELLA) for ppGalNAcTs was developed. As an acceptor substrate, the EA2 peptide (PTTDSTTPAPTTK; SEQ ID NO:12), a fragment of rat submandibular mucin, was chosen. Albone et al. (1994) J. Biol. Chem. 269:16845-16852. This peptide has been previously shown to be an efficient substrate for murine (m) ppGalNAcT-1 and is preferentially glycosylated at the fourth Thr residue from the N-terminus (underlined). Ten Hagen et al. (2001, supra). Biotinylation of EA2 allowed capture of (glyco)peptides onto 96-well NeutrAvidin-coated plates. The GalNAc-modified glycopeptide product could be detected using the α-GalNAc-specific lectin Helix pomatia agglutinin (HPA) (Hammarstrom et al. (1977) Biochemistry 16:2750-2755) conjugated to horseradish peroxidase (HRP). The bound HRP was quantified by addition of a chromogenic substrate.

Experiment [2] deals with HEK 293T cells. Briefly: Jacalin staining of O-linked glycans on HEK 293T cells. The format is cell-based, human. The conditions noted are these: 100 μM, 24 h. On the procedure: (§1) HEK 293T cells were seeded at 20,000 cells/mL in a 24-well plate (Costar) fit with glass cover slips (Fisher). After 24 h of incubation with 100 μM 1-68A, cells were washed twice with PBS (pH 7.4) and fixed with 4% paraformaldehyde-PBS for 1 h at rt. The cells were washed twice with PBS and incubated with permeabilization solution (0.1% Triton X-100 in 0.1% sodium citrate, freshly prepared) for 2 min on ice. After the cells were washed twice with PBS, 50 μL of TUNEL reaction mixture (1:10 dilution, Boehringer Mannheim) was added. The plate was covered with parafilm to avoid evaporative loss and incubated in a humidified atmosphere for 1 h at 37° C. in the dark. The cells were then rinsed three times with PBS and blocked with 2% BSA in PBST (PBS, 0.05% Tween 20) for 30 min at rt. Following one wash with PBS, the cells were incubated with 100 μL of FITC-jacalin (4 μg/mL in PBST) for 1 h at 37° C. in the dark. […] Slides were analyzed by fluorescence microscopy (Zeiss, using Openlab software).
(§2) To determine if the inhibition of O-linked glycosylation and induction of apoptosis by 1-68A and 2-68A were specific to Jurkat cells, the effects of 1-68A on human embryonic kidney (HEK) 293T cells were evaluated. In this case, O-linked glycans on the cell surface were monitored by staining with jacalin, a lectin that binds core 1 structures (Galβ1,3-GalNAcα1-Ser/Thr). […]

The test system of experiment [3] is HEK 293T cells. The experiment is described as follows: TUNEL staining of HEK 293T cells (apoptosis). It counts as cell-based, human. As to conditions: 100 μM, 24 h. On the procedure: as §1, §2

For the molecule `O=c1ccn([C@@H]2O[C@H](CON=Cc3ccc(O)c(O)c3O)[C@@H](O)[C@H]2O)c(=O)[nH]1` [1-68A], in experiment [1], the concentration for half-maximal inhibition (IC50) was found to be 21 ± 1 µM, the “mode of inhibition with respect to UDP-GalNAc” value is recorded as “competitive” and the inhibitory constant (Ki) amounted to 7.8 ± 0.1 µM. For the same molecule, in experiment [2], the “effect on jacalin staining” value is “inhibits”. Moreover, the “effect on TUNEL staining compared to untreated cells” value in experiment [3] was “increases”.
In the case of `O=C(CON=Cc1ccc(O)c(O)c1O)NC[C@H]1O[C@@H](n2ccc(=O)[nH]c2=O)[C@H](O)[C@@H]1O` [2-68A], in experiment [1], the concentration for half-maximal inhibition (IC50) was 24 ± 2 µM, the “mode of inhibition with respect to UDP-GalNAc” value was “competitive” and the inhibition constant Ki is 7.8 ± 1 µM.
